Laboratory results taken from patent publication US4774250A, “Composition and method for treating differentiated carcinoma or melanoma cells with thiapyrylium dyes” (Dana Farber Cancer Institute, priority 1987, dated 1988).
Where two headings read alike, the source gives them in different places.

Tests used:
[1] = tested on: CX-1 (human colon carcinoma); experiment: Clonogenic in vitro study, inhibition of cell colony formation, CX-1; type: cell-based; conditions: for S (selectivity value): comparative examples; for S (selectivity value) / Selectivity: CV-1 IC50 divided by CX-1 IC50; for IC50: Homo sapiens, Colon carcinoma cell, read-out: CX-1 (colon carcinoma cells IC50 value)
Experimental: This IC50 value is compared for both the CX-1 and CV-1. That is, the CV-1 value is divided by the value for CX-1. If the value is 10 μg/ml for CV-1, and […] for CX-1, then the dye is 10 times as effective in killing off the colon carcinoma cells, compared to the monkey epithelial cells. This is expressed as a selectivity "S" of 10. That is, in order to inhibit 50% of the normal cells, the drug requires ten times the concentration needed for inhibiting 50% of the cancer cells.

stomach cancer = stomach cancer in Japan, Antibiotics Chemother., Vol. 24, pages 149-159 (1978); cited from earlier work
[2] = tested on: CV-1 (normal monkey kidney epithelial cells); experiment: Clonogenic in vitro study, inhibition of cell colony formation, CV-1; type: cell-based; conditions: for IC50: Primates, Epithelial cell
From the text: As noted above, one of the advantages of the invention is that the thiapyryliums described herein selectively attack the cancer cells as opposed to normal cells. Although knowledge of the mechanism is not essential to the practice of the invention, it is believed this occurs through the preferential inhibition of ATP synthesis in the mitochondria of the cancer cells. Such selectivity is further shown in clonogenic in vitro studies carried out in conventional fashion. That is, cell cultures of CX-1 (human colon carcinoma) and CV-1 (normal monkey kidney epithelial cells) are prepared and treated at various concentrations, in the conventional manner, and the concentration of the dye that inhibits 50% of the cell colonies formation is denoted as IC50. This IC50 value is compared for both the CX-1 and CV-1. That is, the CV-1 value is divided by the value for CX-1. If the value is 10 μg/ml for CV-1, and […] for CX-1, then the dye is 10 times as effective in killing off the colon carcinoma cells, compared to the monkey epithelial cells. This is expressed as a selectivity "S" of 10. That is, in order to inhibit 50% of the normal cells, the drug requires ten times the concentration needed for inhibiting 50% of the cancer cells.
("Retest" in this table refers to a repeat of the clonogenic test on either an entirely different preparation of the compound, or on a different recrystallization of the same preparation. The slight variance in selectivity can be accounted for, it is speculated, by a different moisture content in the preparation or crystallization of the compounds.)

MB49 tumor cells = experiment: Treatment of mouse bladder carcinoma (MB49) using thiapyrylium dyes administered IP (survival); type: in vivo; conditions: MB49, male BDF1 mice, 2 mg/kg IP daily for 5 days, then twice a week
From the text: (§1) FIGS. 1-6 are survival plots of cancer-bearing mice treated with the dyes of this invention, compared to a control group of such mice that were untreated. In these plots, "% survival" means the % of the total group (treated "T" or control "C") still surviving on the day in question. The 50% data point is selected for the T/C calculation, as being the point that is statistically meaningful.
MB49 tumor cells, that is, mouse carcinoma cells induced by the carcinogen 7,12-dimethyl benz[a]anthracene, were injected intraperitoneally into normal male BDF1 mice (2×10^6 /mouse). Each drug treated group and control group had ten mice. Except for the control group, one of the thiapyrylium dyes of Ex. 1 and Ex. 2 was administered intraperitoneally starting the following day in the following manner: 2 mg/kg daily for 5 days followed by 2 mg/kg twice a week. The control group of 10 mice was treated with 0.25 ml of 5% dextrose in water and was the same control group used for both Ex. 5-6. The survival rate was calculated as in the previous examples. The results were that the dye of Ex. 1 produced a T/C of 227%, and the dye of Ex. 2 produced a T/C of 263%, as shown further in FIGS. 5-6.

[3] = tested on: human melanoma cell line, LOX; experiment: Melanoma test using nude mice protocol (LOX xenograft survival); type: in vivo, human melanoma cells in athymic Swiss nu/nu mice; conditions: male nude mice, 5 mg/kg IP daily for five days, then three times per week
From the text: as §1
(§2) Effectiveness against human cancer can be inferred by tests in the nude mouse-human xenograft model, hereinafter "nude mice protocol". […] 899-903, especially p. 889 (April 1985).
(§3) Nude mice, that is, those deficient in thymic functions, bred and maintained in pathogen-free conditions [See J. Natl. Cancer Inst. 51: 615-619 (1973)] were used in in vivo experiments. For each experiment, nude mice from the same litter and of the same sex which were over 3 months old and weighed at least 25 g were injected or implanted with cancer cells.
A human melanoma cell line, LOX, was used that grows rapidly when inoculated into the peritoneal cavity of athymic mice. […] Cells were then scored for viability with trypan blue and 5 million viable cells made up in 0.1 ml of Dulbecco modified Eagles' medium (DME) were injected intraperitoneally into a group of male athymic Swiss nu/nu mice. […]

[4] = tested on: human ovarian carcinoma line OVCAR-3; experiment: Ovarian carcinoma (OVCAR-3) using nude mice protocol (survival); type: in vivo, human ovarian carcinoma cells in nude mice; conditions: OVCAR-3, female nude mice, 5 mg/kg IP daily for five days, then twice weekly
From the text: as §1, §2, §3
Ex. 1 and 2 were repeated, except they were administered to female nude mice xenografted with human ovarian carcinoma line OVCAR-3. Ten mice were selected for treatment with the thiapyrylium, in an amount of 5 mg/kg administered IP 1 day after the cancer cells were injected. This was repeated as follows: daily for five days followed by twice weekly (usually on Tuesday and Thursday). Ten mice were used as the control group and were injected with 0.25 ml of 5% dextrose in water.

[5] = clonogenic, CX-1 human colon carcinoma
[6] = retest: different preparation or recrystallization, CX-1
[7] = clonogenic, CV-1 normal monkey kidney epithelial cells
[8] = retest: different preparation or recrystallization, CV-1

Cc1cc(N(CCCl)CCCl)ccc1-c1cc(-c2ccccc2)[s+]c(-c2ccccc2)c1 [compound 7, reference compound]
S (selectivity value) [1]: < 7.5

COc1cccc2c1C(=O)c1c(O)c3c(c(O)c1C2=O)C[C@@](O)(C(=O)CO)C[C@@H]3O[C@H]1C[C@H](N)[C@H](O)[C@H](C)O1 [Adriamycin]
effective response rate (stomach cancer): 14.5%

CN(C)c1ccc(-c2cc(-c3ccco3)[s+]c(-c3cccs3)c2)cc1 [compound 5, 4-(4-Dimethylaminophenyl)-2-(2-furyl)-6-(2-thienyl)thiapyrylium perchlorate, reference compound]
S (selectivity value) [1]: 13.5

ClCCN(CCCl)c1ccc(-c2cc(-c3ccccc3)[s+]c(-c3ccccc3)c2)cc1 [compound 9, reference compound]
S (selectivity value) [1]: < 5.0

CN(C)c1ccc(-c2cc(-c3ccccc3)[s+]c(-c3ccccn3)c2)cc1 [T-3, 4-(4-dimethylaminophenyl)-2-phenyl-6-(2-pyridyl)thiapyrylium perchlorate]
Selectivity [1]: 167 | CX-1 (colon carcinoma cells IC50 value) [1, 5]: 0.015 µg/mL | CX-1 (colon carcinoma cells IC50 value) [1, 6]: 0.025 µg/mL | Selectivity ([1]; retest): 100 | CV-1 (normal cells IC50 value) [2, 7]: 2.5 µg/mL | CV-1 (normal cells IC50 value) [2, 8]: 2.5 µg/mL

CN(C)c1ccc(-c2cc(-c3ccccc3)[s+]c(-c3ccc(N(C)C)cc3)c2)cc1 [compound 6, reference compound]
S (selectivity value) [1]: 10.0

CN(C)c1ccc(-c2cc(-c3cccs3)[s+]c(-c3cccs3)c2)cc1 [compound 3, 2,6-Bis(2-thienyl)-4-(4-dimethylaminophenyl)thiapyrylium perchlorate, reference compound]
S (selectivity value) [1]: 1.0

c1ccc(CN(Cc2ccccc2)c2ccc(-c3cc(-c4ccccc4)[s+]c(-c4ccccc4)c3)cc2)cc1 [compound 8, reference compound]
S (selectivity value) [1]: < 7.5

CN(C)c1ccc(-c2cc(-c3ccccc3)[s+]c(-c3ccccc3)c2)cc1 [compound 2, reference compound]
S (selectivity value) [1]: 5.0

CN(C)c1ccc(-c2cc(-c3ccncc3)[s+]c(-c3cccs3)c2)cc1 [compound 4, 4-(4-Dimethylaminophenyl)-2-(4-pyridyl)-6-(2-thienyl)thiapyrylium perchlorate, reference compound]
S (selectivity value) [1]: 3.3

CN(C)c1ccc(-c2cc(-c3ccccn3)[s+]c(-c3cccs3)c2)cc1 [T-1, 4-(4-dimethylaminophenyl)-2-(2-pyridyl)-6-(2-thienyl)thiapyrylium chloride]
Selectivity [1]: 200 | IC50 [1, 5]: 0.01 µg/mL | CV-1 (normal cells IC50 value) [2, 7]: 2.0 µg/mL | T/C (MB49 tumor cells): 263% | T/C (test drug versus control, calculated based on 50% survival day) [3]: 200% | T/C [4]: 321%

CN(C)c1ccc(-c2cc(-c3ccccn3)[s+]c(-c3cccs3)c2)cc1 [T-4, 4-(4-dimethylaminophenyl)-2-(2-pyridyl)-6-(2-thienyl)thiapyrylium perchlorate]
Selectivity [1]: 333 | IC50 [1, 6]: 0.015 µg/mL | Selectivity ([1]; retest): 100 | IC50 [2, 8]: 1.5 µg/mL | CV-1 (normal cells IC50 value) [2, 7]: 5.0 µg/mL

CN(C)c1ccc(-c2cc(-c3ccccc3)[s+]c(-c3ccccn3)c2)cc1 [T-2, 4-(4-dimethylaminophenyl)-2-phenyl-6-(2-pyridyl)thiapyrylium chloride]
Selectivity [1]: 167 | IC50 [1, 5]: 0.018 µg/mL | CX-1 (colon carcinoma cells IC50 value) [1, 6]: 0.005 µg/mL | Selectivity ([1]; retest): 60 | IC50 [2, 7]: 3 µg/mL | T/C (MB49 tumor cells): 227% | T/C (test drug versus control, calculated based on 50% survival day) [3]: 228% | T/C [4]: 340%
